The experiment deals with C17.2 mouse neural stem cells. Description: Neural stem cell differentiation assay (Tuj1/GFAP immunofluorescence staining). Type of experiment: cell-based. The note with it: C17.2 cells, 6 days; for increase of neurons compared to control: vs DMSO control. From the text: We recently developed another protein-based screening method, the target protein oriented natural products isolation method (TPO-NAPI) using protein beads (Fig. 2B). Agalloside, inohanamine, α-mangostine, BE-14106, isomicromonolactam, staurosporin and linarin were isolated as Hes1 binding compounds using the TPO-NAPI method[15],[17]. Rat Hes1 (1–95) containing basic and helix-loop-helix domains was immobilized because the helix-loop-helix domain is known to be important for Hes1-Hes1 interaction; therefore, utilizing this domain in the beads method would likely be effective for screening Hes1 dimer inhibitors. GST-Hes1 immobilized beads were prepared by mixing freshly prepared GST-Hes1 protein with glutathione Sepharose 4B beads. GST-only beads were prepared as a control. After incubating the beads with plant MeOH extracts at 4 °C for 2 h, bound compounds were eluted by adding EtOH and heating at 100 °C for 3 min, then the eluted compounds were analyzed by HPLC. […] The MeOH extract (64.6 g) of Terminalia chebula bark was partitioned with hexane, EtOAc and BuOH to obtain hexane (1.5 g), EtOAc (3.6 g), BuOH (42.6 g), and aqueous (20.5 g) soluble fractions. The EtOAc fraction contained the target peak and was subjected to silica gel column chromatography to give eight fractions (1A-H). Fraction 1D contained the target peak and was separated by ODS column chromatography and reverse-phase HPLC to give compound 11 (0.4 mg). Compound 11 was identified as 4-O-(4″-O-galloyl-α-L-rhamnopyranosyl)ellagic acid by comparison of its NMR data with reported spectral data[37]. […] This is the strongest Hes1 dimer inhibitor reported to date. The ability of 11 to accelerate the differentiation of C17.2 mouse neural stem cells was evaluated (Fig. 5). C17.2 cells (2 × 10^5 cells/mL) were seeded in a poly-L-lysine-coated 24 well plates and incubated for 24 h, then the cells were treated with DMSO (control), 100 μM valproic acid (VPA), 5 μM retinoic acid (RA) (positive controls) or 11 (1 or 5 μM) for 6 days. A confocal microscope was used to obtain images of differentiated neural cells after immunostaining class III β-tubulin (Tuj1) in neurons, and glial fibrillary acidic protein (GFAP) in astrocytes and nuclei (TO-PRO-3). […] In contrast, the control dish containing cells treated with DMSO contained small number of neurons.
C17.2 cells were cultured in proliferation medium [DMEM (DS Pharma Biomedical Co., Ltd. Osaka, Japan) supplemented with 10% fetal bovine serum (Biowest, Nuaillé, France), 5% horse serum (Gibco, Life Technologies, Tokyo, Japan)]. Neural differentiation of C17.2 cells was initiated by transferring the cells to differentiation medium [Neurobasal Medium (Gibco) supplemented with 2% B-27 without vitamin A (Gibco), 1% antibiotic-antimycotic (Gibco)]. All cultures were maintained in a humidified incubator at 37 °C in 5% CO2/95% air.
C17.2 cells were dissociated using the proliferation medium 2 × 10^5 cells/mL on cover glass (MATSUNAMI GLASS) coated with poly-L-lysine and fibronectin/laminin. After incubation for 24 h, cells were washed with D-MEM and treated with individual compounds in differentiation medium for 6 days.
C17.2 cells were fixed with 4% paraformaldehyde in PBS for 20 min at room temperature (r.t.) and washed with 1% BSA in PBS three times. After blocking with 10% BSA in 0.3% Triton X-100 in PBS for 45 min at r.t., fixed cells were incubated with primary antibodies (anti-βIII-Tubulin; Neuronal Class III, Mouse-Mono, 1:400, R&D Systems^TM; anti-GFAP, 1:400, VERITAS) for 12 h at 4 °C. After washing three times with 1% BSA in PBS (500 μL/well), cells were incubated with secondary antibodies (Alexa Fluor® 488 goat anti-mouse IgG (H + L), 1:400, Life Technologies; Alexa Fluor® 555 goat ant-rabbit IgG (H + L), 1:200, Life Technologies) for 1 hr at r.t. in the dark. […]

Take `CC1OC(Oc2cc3c(=O)oc4c(O)c(O)cc5c(=O)oc(c2O)c3c45)C(O)C(O)C1OC(=O)c1cc(O)c(O)c(O)c1` [Compound 11, 4-O-(4″-O-galloyl-α-L-rhamnopyranosyl)ellagic acid]: the differentiated neurons is listed as 33.6% (1 µM) and 45.4% (5 µM). In addition, the “increase of neurons compared to control” value came to 67% (1 µM) and 125% (5 µM).

The values above are taken from PMC6987128, “Target protein-oriented isolation of Hes1 dimer inhibitors using protein based methods” (Scientific Reports, 2020).
